How the values were obtained:
c-KIT = biological target: T1, c-KIT (Homo sapiens, UniProt P10721); experiment: AlphaScreen kinase assay with recombinant enzyme, c-KIT; assay type: biochemical; conditions: 100ATP, 8pt, GMean
T1 construct: purchased Millipore 14-559K
Procedure, shortened: (§1)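 AlphaScreen, biotinylated poly(Glu4-Tyr) 30 nM final; PY20 anti-pTyr acceptor and streptavidin donor beads 10 μg/mL; IC50 final conc. 10 μM (FLT3-D835Y, FLT3-ITD) / 100 μM (c-KIT); detection incubations 20 + 60 min RT; 580 nm emission.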

FLT3-D835Y = biological target: T2, FLT3-D835Y (Homo sapiens, UniProt P36888, D835Y); experiment: AlphaScreen kinase assay with recombinant enzyme, FLT3-D835Y; assay type: biochemical; conditions: 8pt, GMean
T2 construct: purchased Invitrogen PV3967
T2 sequence (P36888 27-993 D835Y): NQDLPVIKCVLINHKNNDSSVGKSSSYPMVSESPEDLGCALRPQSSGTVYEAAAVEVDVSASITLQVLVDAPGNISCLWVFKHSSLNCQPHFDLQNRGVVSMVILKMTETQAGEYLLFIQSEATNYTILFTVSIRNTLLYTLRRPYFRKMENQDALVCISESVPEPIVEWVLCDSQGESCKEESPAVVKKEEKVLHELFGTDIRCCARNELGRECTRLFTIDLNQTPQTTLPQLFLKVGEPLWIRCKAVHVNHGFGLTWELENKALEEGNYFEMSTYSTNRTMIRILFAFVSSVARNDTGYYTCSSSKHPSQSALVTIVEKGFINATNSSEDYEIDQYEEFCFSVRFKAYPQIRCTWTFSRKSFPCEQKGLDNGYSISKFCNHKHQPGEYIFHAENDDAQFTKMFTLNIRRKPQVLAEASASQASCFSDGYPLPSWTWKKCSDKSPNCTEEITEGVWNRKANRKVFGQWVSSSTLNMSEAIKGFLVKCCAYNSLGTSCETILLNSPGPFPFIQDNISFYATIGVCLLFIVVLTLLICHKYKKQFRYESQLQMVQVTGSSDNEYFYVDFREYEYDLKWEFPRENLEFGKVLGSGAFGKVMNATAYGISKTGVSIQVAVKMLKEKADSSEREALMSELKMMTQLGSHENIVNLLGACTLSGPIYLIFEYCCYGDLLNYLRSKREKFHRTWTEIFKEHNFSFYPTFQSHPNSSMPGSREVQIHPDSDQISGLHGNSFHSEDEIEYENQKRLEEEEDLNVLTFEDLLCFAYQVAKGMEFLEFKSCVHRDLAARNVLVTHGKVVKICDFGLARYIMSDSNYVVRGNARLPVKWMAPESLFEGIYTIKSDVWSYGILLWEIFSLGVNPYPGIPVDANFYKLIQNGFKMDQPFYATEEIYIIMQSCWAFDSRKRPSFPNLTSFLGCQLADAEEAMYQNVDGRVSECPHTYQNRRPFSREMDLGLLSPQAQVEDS
Procedure, shortened: as §1

T1 sequence (P10721 26-976): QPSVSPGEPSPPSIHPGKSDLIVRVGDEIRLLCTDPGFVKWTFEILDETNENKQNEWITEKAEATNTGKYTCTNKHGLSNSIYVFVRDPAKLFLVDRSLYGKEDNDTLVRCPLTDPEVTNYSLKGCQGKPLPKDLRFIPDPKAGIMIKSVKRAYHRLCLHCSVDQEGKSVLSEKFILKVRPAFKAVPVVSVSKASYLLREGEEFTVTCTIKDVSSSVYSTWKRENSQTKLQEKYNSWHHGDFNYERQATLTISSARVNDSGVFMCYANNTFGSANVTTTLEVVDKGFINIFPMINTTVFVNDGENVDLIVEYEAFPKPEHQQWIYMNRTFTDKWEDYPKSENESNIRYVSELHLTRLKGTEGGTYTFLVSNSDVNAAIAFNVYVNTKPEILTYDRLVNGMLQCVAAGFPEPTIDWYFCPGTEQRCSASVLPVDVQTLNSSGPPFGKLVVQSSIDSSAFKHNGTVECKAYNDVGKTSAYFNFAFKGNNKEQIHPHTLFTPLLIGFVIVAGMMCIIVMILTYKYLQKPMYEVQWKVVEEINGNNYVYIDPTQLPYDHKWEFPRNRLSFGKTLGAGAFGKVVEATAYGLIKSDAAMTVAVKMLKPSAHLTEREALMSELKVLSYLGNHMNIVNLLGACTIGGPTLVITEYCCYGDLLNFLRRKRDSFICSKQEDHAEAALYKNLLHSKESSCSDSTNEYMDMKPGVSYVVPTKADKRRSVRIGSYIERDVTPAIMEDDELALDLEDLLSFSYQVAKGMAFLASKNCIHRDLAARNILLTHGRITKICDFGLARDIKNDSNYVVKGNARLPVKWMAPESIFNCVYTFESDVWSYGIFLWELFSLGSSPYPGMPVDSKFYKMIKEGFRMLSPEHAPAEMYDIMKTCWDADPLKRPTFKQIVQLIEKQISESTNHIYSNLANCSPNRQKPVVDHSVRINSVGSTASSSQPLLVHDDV

Row | SMILES | IC50 (c-KIT) [µM] | IC50 (FLT3-D835Y) [µM]
1 | c1ccc(-c2cc3cc(-c4ccc5[nH]nc(NC6CCNC6)c5c4)cnc3[nH]2)cc1 (stereo not shown) [Compound P-0059, 5-(2-phenyl-1H-pyrrolo[2,3-b]pyridin-5-yl)-N-pyrrolidin-3-yl-1H-indazol-3-amine] | 0.0001 to 10 | 0.0001 to 10
2 | NC1CCN(C(=O)c2n[nH]c3ccc(-c4cnc5[nH]c(C6=CCN(C(=O)C7CC7)C6)cc5c4)cc23)CC1 [Compound P-0074, (4-amino-1-piperidyl)-[5-[2-[1-(cyclopropanecarbonyl)-2,5-dihydropyrrol-3-yl]-1H-pyrrolo[2,3-b]pyridin-5-yl]-1H-indazol-3-yl]methanone] | 10 to 50 | 0.0001 to 10
3 | CNC1CCN(Cc2cccc(-c3cnc4[nH]c(-c5ccccc5)cc4c3)n2)C1 (stereo not shown) [Compound P-0087, N-methyl-1-[[6-(2-phenyl-1H-pyrrolo[2,3-b]pyridin-5-yl)-2-pyridyl]methyl]pyrrolidin-3-amine] | 0.0001 to 10 | 0.0001 to 10
4 | COC(=O)C1(C)CCN(C(=O)c2cccc(-c3cnc4[nH]c(-c5ccccc5)cc4c3)n2)CC1 [Compound P-0092, methyl 4-methyl-1-[6-(2-phenyl-1H-pyrrolo[2,3-b]pyridin-5-yl)pyridine-2-carbonyl]piperidine-4-carboxylate] | 50 to 100 | 0.0001 to 10

Further lines, results first:

Row | IC50 (c-KIT) [µM] | IC50 (FLT3-D835Y) [µM] | SMILES
5 | 0.0001 to 10 | 0.0001 to 10 | NC1CCCN(C(=O)c2cccc(-c3cnc4[nH]c(-c5ccccc5)cc4c3)n2)C1 (stereo not shown) [Compound P-0067, (3-amino-1-piperidyl)-[6-(2-phenyl-1H-pyrrolo[2,3-b]pyridin-5-yl)-2-pyridyl]methanone]
6 | 0.0001 to 10 | 0.0001 to 10 | O=C(c1cccc(-c2cnc3[nH]c(-c4ccccc4)cc3c2)n1)N1CCC(O)C1 (stereo not shown) [Compound P-0068, (3-hydroxypyrrolidin-1-yl)-[6-(2-phenyl-1H-pyrrolo[2,3-b]pyridin-5-yl)-2-pyridyl]methanone]
7 | 10 to 50 | 0.0001 to 10 | O=C(c1cccc(-c2cnc3[nH]c(-c4ccccc4)cc3c2)n1)N1CCCC(O)C1 (stereo not shown) [Compound P-0069, (3-hydroxy-1-piperidyl)-[6-(2-phenyl-1H-pyrrolo[2,3-b]pyridin-5-yl)-2-pyridyl]methanone]
8 | 50 to 100 | 50 to 100 | O=C(c1cccc(-c2cnc3[nH]c(-c4ccccc4)cc3c2)n1)N1CCC(F)(F)CC1 [Compound P-0089, (4,4-difluoro-1-piperidyl)-[6-(2-phenyl-1H-pyrrolo[2,3-b]pyridin-5-yl)-2-pyridyl]methanone]
